The subject of this experiment is Acinetobacter baumannii ATCC 17961. As to the kind of experiment: Antimicrobial susceptibility testing: 90% growth inhibitory concentration (IC90) determination. Format: cell-based. The conditions noted are these: read-out: ATCC 17961 IC90. A digest of the protocol:
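Growth was followed kinetically by OD600 at 20-min intervals for 16 h at 35±2 °C, with ~5×10^5 CFU/ml in Iso-Sensitest broth. Compounds were tested as twofold dilutions (e.g. 50–0.097 μM final). The concentration giving 90% inhibition of log-phase growth was reported.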

[1] abbreviates: ATCC17961, Acinetobacter baumannii ATCC 17961, Iso-Sensitest broth.

Where a name gives a salt, the structure may show the parent alone. Read-outs that look alike come from different tables or passages of the source.

The results in this text go back to patent US11390604B2 (Hoffmann-La Roche Inc., priority 2019, dated 2022).

As a reminder, the IC90 is the concentration at which the effect reaches the 90% level.

On to `C=CCn1cc(-c2cnc(C(=O)Nc3ccc(C(=O)N4CCN(C(=O)C5CCNCC5)CC4)c(Cl)c3)n2C)c(C(F)(F)F)n1` [Example 7, 5-(1-allyl-3-(trifluoromethyl)-1H-pyrazol-4-yl)-N-(3-chloro-4-(4-(piperidine-4-carbonyl)piperazine-1-carbonyl)phenyl)-1-methyl-1H-imidazole-2-carboxamide hydrochloride], for which, under setting [1], the IC90 is 358 nM.
The same measure, in the same setting: with `Cn1c(-c2cn(C3CC3)nc2C(F)(F)F)cnc1C(=O)Nc1ccc(C(=O)N2CCN(C(=O)N[C@@H]3CC[C@@H](N)C3)CC2)c(Cl)c1` [Example 232, N-((1R,3R)-3-aminocyclopentyl)-4-(2-chloro-4-(5-(1-cyclopropyl-3-(trifluoromethyl)-1H-pyrazol-4-yl)-1-methyl-1H-imidazole-2-carboxamido)benzoyl)piperazine-1-carboxamide formate] the figure was 267 nM; with `Cn1c(-c2cn(CC3CC3)nc2C(F)(F)F)cnc1C(=O)Nc1ccc(C(=O)N2CCN(C(=O)N[C@H]3C[C@@H](N)C3)CC2)c(Cl)c1` [Example 203, rac-N-((1s,3s)-3-aminocyclobutyl)-4-(2-chloro-4-(5-(1-(cyclopropylmethyl)-3-(trifluoromethyl)-1H-pyrazol-4-yl)-1-methyl-1H-imidazole-2-carboxamido)benzoyl)piperazine-1-carboxamide], 222 nM; with `CCn1cc(-c2cnc(C(=O)Nc3ccc(C(=O)N4CCN(C(=O)[C@H]5[C@@H]6CNC[C@@H]65)CC4)c(Br)c3)n2C)c(C(F)(F)F)n1` [Example 263, N-[3-bromo-4-[4-[rac-(1R,5S)-3-azabicyclo[3.1.0]hexane-6-carbonyl]piperazine-1-carbonyl]phenyl]-5-[1-ethyl-3-(trifluoromethyl)pyrazol-4-yl]-1-methylimidazole-2-carboxamide;hydrochloride], 325 nM.
As to “N-[4-[(4-aminocyclohexyl)carbamoyl]-3-chlorophenyl]-1-methyl-5-[3-(trifluoromethyl)-1H-pyrazol-4-yl]imidazole-2-carboxamide;2,2,2-trifluoroacetic acid [Example 123]”, for the setting “Acinetobacter baumannii ATCC 17961, Iso-Sensitest broth”, the IC90 turned out to be 3840 nM.
For `Cn1c(-c2cn(CC(F)F)nc2C(F)(F)F)cnc1C(=O)Nc1ccc(C(=O)NC2C3CN(C(=O)C4CCNCC4)CC32)c(Cl)c1` (stereo not shown) [Example 235, N-(3-chloro-4-((3-(piperidine-4-carbonyl)-3-azabicyclo[3.1.0]hexan-6-yl)carbamoyl)phenyl)-5-(1-(2,2-difluoroethyl)-3-(trifluoromethyl)-1H-pyrazol-4-yl)-1-methyl-1H-imidazole-2-carboxamide formate], under setting [1], the IC90 is 268 nM.
On the same count and under the same terms, with `Cn1c(-c2cn(CC#N)nc2C(F)(F)F)cnc1C(=O)Nc1ccc(C(=O)NCCCCN)c(Cl)c1` [Example 345, N-(4-((4-aminobutyl)carbamoyl)-3-chlorophenyl)-5-(1-(cyanomethyl)-3-(trifluoromethyl)-1H-pyrazol-4-yl)-1-methyl-1H-imidazole-2-carboxamide tris(2,2,2-trifluoroacetate)] the figure was 444 nM.
Same read-out and setting: with `Cn1c(-c2cn(CC3CCC3)nc2C(F)(F)F)cnc1C(=O)Nc1ccc(C(=O)N[C@H]2[C@@H]3CN(C(=O)C4CCNCC4)C[C@@H]32)c(Cl)c1` [Example 174, N-(3-chloro-4-(((1R,5S,6s)-3-(piperidine-4-carbonyl)-3-azabicyclo[3.1.0]hexan-6-yl)carbamoyl)phenyl)-5-(1-(cyclobutylmethyl)-3-(trifluoromethyl)-1H-pyrazol-4-yl)-1-methyl-1H-imidazole-2-carboxamide formate] the figure was 250 nM; with `CN1CCC(C(=O)N2CCN(C(=O)c3ccc(NC(=O)c4ncc(-c5cn(CC#N)nc5C(F)(F)F)n4C)cc3Cl)CC2)CC1` [Example 15, N-(3-chloro-4-(4-(1-methylpiperidine-4-carbonyl)piperazine-1-carbonyl)phenyl)-5-(1-(cyanomethyl)-3-(trifluoromethyl)-1H-pyrazol-4-yl)-1-methyl-1H-imidazole-2-carboxamide], 558 nM.
On the same count and under the same terms, with `Cn1c(-c2cn(CC3CC3)nc2C(F)(F)F)cnc1C(=O)Nc1ccc(C(=O)NCC2CN(C(=O)N[C@H]3C[C@@H](N)C3)C2)c(Cl)c1` [Example 373, rac-N-(4-(((1-(((1s,3s)-3-aminocyclobutyl)carbamoyl)aze-tidin-3-yl)methyl)carbamoyl)-3-chlorophenyl)-5-(1-(cyclopropylmethyl)-3-(trifluoromethyl)-1H-pyrazol-4-yl)-1-methyl-1H-imidazole-2-carboxamide formate] the figure was 494 nM; with `Cn1c(-c2cn(C3CC3(F)F)nc2C(F)(F)F)cnc1C(=O)Nc1ccc(C(=O)NCC2C3CN(C(=O)N[C@H]4CNC[C@@H]4O)CC23)c(Cl)c1` (mixture of isomers) [Example 365, rac-6-((2-chloro-4-(5-(1-(2,2-difluorocyclopropyl)-3-(trifluoromethyl)-1H-pyrazol-4-yl)-1-methyl-1H-imidazole-2-carboxamido)benzamido)methyl)-N-((3S,4S)-4-hydroxypyrrolidin-3-yl)-3-azabicyclo[3.1.0]hexane-3-carboxamide formate], 483 nM; with `CO[C@H]1CNC[C@@H]1NC(=O)c1ccc(NC(=O)c2ncc(-c3cn(C4CC4(F)F)nc3C(F)(F)F)n2C)cc1Cl` (mixture of isomers) [Example 280, N-(3-chloro-4-((trans-4-methoxypyrrolidin-3-yl)carbamoyl)phenyl)-5-(1-(2,2-difluorocyclopropyl)-3-(trifluoromethyl)-1H-pyrazol-4-yl)-1-methyl-1H-imidazole-2-carboxamide formate], 345 nM.
As for `Cn1c(-c2cn(CC3CC3)nc2C(F)(F)F)cnc1C(=O)Nc1ccc(C(=O)N2CCN(C(=O)CN)CC2)c(Cl)c1` [Example 209, N-(3-chloro-4-(4-glycylpiperazine-1-carbonyl)phenyl)-5-(1-(cyclopropylmethyl)-3-(trifluoromethyl)-1H-pyrazol-4-yl)-1-methyl-1H-imidazole-2-carboxamide], the concentration for an effect of 90% (IC90) under setting [1] worked out at 230 nM.
The same measure, in the same setting: with `C#CCn1cc(-c2cnc(C(=O)Nc3ccc(C(=O)N4CCN(C(=O)N5CC6(CCN6)C5)CC4)c(Cl)c3)n2C)c(C(F)(F)F)n1` [Example 91, N-[3-chloro-4-[4-(1,6-diazaspiro[3.3]heptane-6-carbonyl)piperazine-1-carbonyl]phenyl]-1-methyl-5-[1-prop-2-ynyl-3-(trifluoromethyl)pyrazol-4-yl]imidazole-2-carboxamide] the figure was 170 nM.
As for `Cn1c(-c2cn(C3CC3)nc2C(F)(F)F)cnc1C(=O)Nc1ccc(C(=O)N2CCN(C(=O)[C@H]3CCNC3)CC2)c(Cl)c1` [Example 299, (S)-N-(3-chloro-4-(4-(pyrrolidine-3-carbonyl)piperazine-1-carbonyl)phenyl)-5-(1-cyclopropyl-3-(trifluoromethyl)-1H-pyrazol-4-yl)-1-methyl-1H-imidazole-2-carboxamide hydrochloride], the 90% effect concentration (IC90) under setting [1] came to 366 nM.
The same measure, in the same setting: with `Cn1c(-c2cn(Cc3cccnc3)nc2C(F)(F)F)cnc1C(=O)Nc1ccc(C(=O)N2CCNCC2)c(Cl)c1` [Example 67, N-[3-chloro-4-(piperazine-1-carbonyl)phenyl]-1-methyl-5-[1-(pyridin-3-ylmethyl)-3-(trifluoromethyl)pyrazol-4-yl]imidazole-2-carboxamide;hydrochloride] the figure was 1440 nM.
The same measure, in the same setting: with `Cn1c(-c2cn(CC(F)(F)F)nc2C(F)(F)F)cnc1C(=O)Nc1ccc(C(=O)N2CCN(C(=O)C3CCNCC3)CC2)c(Cl)c1` [Example 2, N-(3-Chloro-4-(4-(piperidine-4-carbonyl)piperazine-1-carbonyl)phenyl)-1-methyl-5-(1-(2,2,2-trifluoroethyl)-3-(trifluoromethyl)-1H-pyrazol-4-yl)-1H-imidazole-2-carboxamide Hydrochloride] the figure was 399 nM.
Still for that read-out and setting: with `C#CCn1cc(-c2cnc(C(=O)Nc3ccc(C(=O)N4CCN(C(=O)N5CC[C@@H](N)C5)CC4)c(Cl)c3)n2C)c(C(F)(F)F)n1` [Example 79, N-[4-[4-[(3R)-3-aminopyrrolidine-1-carbonyl]piperazine-1-carbonyl]-3-chlorophenyl]-1-methyl-5-[1-prop-2-ynyl-3-(trifluoromethyl)pyrazol-4-yl]imidazole-2-carboxamide] the figure was 131 nM; with `Cn1c(-c2cn(C3CC3)nc2C(F)(F)F)cnc1C(=O)Nc1ccc(C(=O)N[C@H]2[C@@H]3CN(C(=O)C4CCNCC4)C[C@@H]32)c(Cl)c1` [Example 306, N-(3-chloro-4-((exo-3-(piperidine-4-carbonyl)-3-azabicyclo[3.1.0]hexan-6-yl)carbamoyl)phenyl)-5-(1-cyclopropyl-3-(trifluoromethyl)-1H-pyrazol-4-yl)-1-methyl-1H-imidazole-2-carboxamide], 374 nM.
For `Cn1c(-c2cn(C3CC3)nc2C(F)(F)F)cnc1C(=O)Nc1ccc(C(=O)N2CCN(C(=O)CCCN)CC2)c(Cl)c1` [Example 302, N-(4-(4-(4-aminobutanoyl)piperazine-1-carbonyl)-3-chlorophenyl)-5-(1-cyclopropyl-3-(trifluoromethyl)-1H-pyrazol-4-yl)-1-methyl-1H-imidazole-2-carboxamide hydrochloride], the 90% effect concentration (IC90) under setting [1] was determined as 370 nM.
In the case of `CCc1cc(NC(=O)c2ncc(-c3cn(Cc4cccnc4)nc3C(F)(F)F)n2C)ccc1C(=O)N1CCN(C(=O)C2CCNCC2)CC1` [Example 159, N-[3-ethyl-4-[4-(piperidine-4-carbonyl)piperazine-1-carbonyl]phenyl]-1-methyl-5-[1-(pyridin-3-ylmethyl)-3-(trifluoromethyl)pyrazol-4-yl]imidazole-2-carboxamide;formic acid], the IC90 under setting [1] came to 1160 nM.
Still for that read-out and setting: with `C=Cn1cc(-c2cnc(C(=O)Nc3ccc(C(=O)N4CCN(C(=O)NC5CNC5)CC4)c(Cl)c3)n2C)c(C(F)(F)F)n1` [Example 171, N-(azetidin-3-yl)-4-(2-chloro-4-(1-methyl-5-(3-(trifluoromethyl)-1-vinyl-1H-pyrazol-4-yl)-1H-imidazole-2-carboxamido)benzoyl)piperazine-1-carboxamide] the figure was 207 nM.
